Results taken from PubChem BioAssay (NCI).
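Cultured in 96-well plates, cells were exposed to test compound for 48 hours across five concentrations. The concentration for full growth arrest is given as TGI.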

Assays:
Assay in all cases: growth of human tumour cells (NCI), 48 h
BT-549 breast = tested on: BT-549 breast
MDA-MB-435 = tested on: MDA-MB-435
DU-145 prostate = tested on: DU-145 prostate
UACC-62 melanoma = tested on: UACC-62 melanoma
LOX IMVI melanoma = tested on: LOX IMVI melanoma
SR leukemia = tested on: SR leukemia
RXF 393 renal = tested on: RXF 393 renal
IGROV1 ovarian = tested on: IGROV1 ovarian
M14 melanoma = tested on: M14 melanoma
UACC-257 melanoma = tested on: UACC-257 melanoma
SNB-19 CNS = tested on: SNB-19 CNS
CCRF-CEM leukemia = tested on: CCRF-CEM leukemia
HL-60(TB) leukemia = tested on: HL-60(TB) leukemia
NCI-H460 lung = tested on: NCI-H460 lung
TK-10 renal = tested on: TK-10 renal
HCC-2998 colon = tested on: HCC-2998 colon
SK-MEL-2 melanoma = tested on: SK-MEL-2 melanoma
T-47D breast = tested on: T-47D breast
CAKI-1 renal = tested on: CAKI-1 renal
EKVX NSCLC = tested on: EKVX NSCLC

SMILES	TGI (BT-549 breast) [µM]	TGI (MDA-MB-435) [µM]	TGI (DU-145 prostate) [µM]	TGI (UACC-62 melanoma) [µM]	TGI (LOX IMVI melanoma) [µM]	TGI (SR leukemia) [µM]	TGI (RXF 393 renal) [µM]	TGI (IGROV1 ovarian) [µM]	TGI (M14 melanoma) [µM]	TGI (UACC-257 melanoma) [µM]	TGI (SNB-19 CNS) [µM]	TGI (CCRF-CEM leukemia) [µM]	TGI (HL-60(TB) leukemia) [µM]	TGI (NCI-H460 lung) [µM]	TGI (TK-10 renal) [µM]	TGI (HCC-2998 colon) [µM]	TGI (SK-MEL-2 melanoma) [µM]	TGI (T-47D breast) [µM]	TGI (CAKI-1 renal) [µM]	TGI (EKVX NSCLC) [µM]
COC1=C(Br)[C@H](O)[C@@]2(C=C1Br)CC(C(=O)NCCCCCN=C(N)N)=NO2	> 10	> 10	> 10	> 10	> 10	> 10	> 10	> 10	> 10	> 10	> 10	> 10	> 10	> 10	> 10	> 10	> 10	> 10		
C[C@]12CCC(=O)C=C1CC[C@@H]1C2CC[C@]2(C)c3nn(-c4ccc(F)cc4)nc3CC12 (some centres not stated)	> 100	> 100	> 100	> 100		> 100	> 100	> 100	> 100	> 100	> 100	> 100	> 100	> 100	> 100	> 100		> 100	> 100	> 100
N#CC(C(=O)/C(=N/Nc1nc(=S)[nH]n1N)C(C#N)c1ccccc1)c1ccccc1 (configuration not stated)	> 100	> 100	> 100	> 100	> 100	> 100	> 100	> 100	> 100	> 100	> 100	> 100	> 100	> 100	> 100	> 100	> 100	> 100	> 100	> 100
CN(C)C1=Nc2ccccc2C(=S)N2CSCC12 (configuration not stated)	> 100	> 100	> 100	> 100	> 100	48	> 100	52.3	> 100	> 100	> 100	45.1		> 100	> 100	> 100	> 100	> 100	45	> 100
N#CC(NNC(=O)Cc1ccccc1)c1ccccc1O (configuration not stated)	> 100	> 100	> 74.6	28.8	31.5	70.7	> 100	> 100	24.2	> 94.3	> 80.8	> 54.9	36	> 100	> 100	56.1	> 100	> 65.3	> 89.9	> 100
CCC1c2[nH]c3ccccc3c2C[C@H]2C(=O)NC(COC(C)(C)C)C(=O)N12 (some centres not stated)	> 100	> 100	> 100	> 100	> 100	> 100	> 100	> 100	> 100	> 100	> 100		60.9	> 100	> 100		85	> 100	> 100	> 100
Cc1cccc(/C=N/NC(=S)NCCc2ccccn2)n1	> 100	> 73.7	> 86.3	56.7	> 100	> 100		> 100	33.6	> 100	> 100	> 72.9	41.7	> 100	> 100	> 100	> 100	> 100	> 100	> 100
CCN(CC)c1ccc2cc(-c3nnc(-c4ccccc4)o3)c(=O)oc2c1	> 100	> 100	> 100	> 100	> 100	> 100	> 52.5	> 80.8	> 100	> 100	> 80.9	> 100	70.6	> 51.3	> 62.6	> 46.3	> 87.2	> 71.4	> 100	> 100
C=CCNC1=C2C[C@@H](C)C[C@@H](OC)[C@@H](OC(=O)CCCN)[C@H](C)/C=C(\C)[C@@H](OC(N)=O)[C@H](OC)/C=C\C=C(/C)C(=O)NC(=CC1=O)C2=O	25.7	45.2	38.3	31.8	> 47.3	> 79	42.2	30.1	28.7	31.9	32.2	28.9	19.7	59	33.4	32.9	31	> 67.2	35.3	39.1
COc1ccc(CCNC2=CC(=O)c3ncccc3C2=O)cc1OC	2.82	0.924	3.57	1.24	3.14	> 79.8	15.2	7.63	2.69	3.19	7.27	39.1	10.6	1.75	> 86	4.68	6.73	24.7	12.2	29.6
COn1cc(C=O)c2ccccc21	> 100	34.9	> 100	> 100	> 100	> 71.4	> 100	> 100	> 100	> 100	> 100	1.34	1.52	> 100	> 93	53.7	> 100	> 100	> 100	> 100
O=C1NC(=O)C(c2c[nH]c3cc(Br)ccc23)=C1c1cn(C(c2ccccc2)(c2ccccc2)c2ccccc2)cn1	38.8	> 100	62.8	> 100	33.4	32.3	37.5	28.5	29.9	51.2	97.4	> 100	39.5	31.4	38.4	26.4	25.8	93	97.4	29.1
